Patent publication US20260265259A1, “SUBSTITUTED 6-IMIDAZOPYRIDAZINE IL-17A MODULATORS AND USES THEREOF” (DICE ALPHA, INC., priority 2023, published 2026)

System: IL-17A/A
Assay: IL-17A/A HEK-Blue cell assay
Format: cell-based
Conditions: HEK-Blue, 20 h, IL-17A/A inhibition, HEK-Blue IL-17A reporter cell line, IL17A/A 5 ng/mL, SEAP read at A630, read-out: AA IC50
Method: The HEK-Blue IL-17A reporter cell line (Fisher #NC1408637) was used for cell-based IL-17A/A inhibition assays. Cells were grown and prepared for assays according to the manufacturer's instructions. This cell line consists of HEK 293 cells that were designed to expressed IL-17RA, IL-17RC, and the Act1 adapter molecule, the combination of which, when stimulated by IL-17A/A or IL17A/F activates a NFκB promoter and drives expression of the recombinant Secreted Alkaline Phosphatase (SEAP) gene. Media from the cells is then added to a development reagent (Quanti-Blue Substrate, Fisher #NC9711613), and read at A630.
Compounds were dispensed in DMSO to an empty clear 384-well tissue culture plate in a titration ranging from 10 μM to 27 pM, with DMSO added to every well to a final concentration of 0.1%. Cells were then added to the plate (45 μL/well at a concentration of 280,000 cells/mL). IL17A/A (Genscript #Z03228) or IL17A/F (R&D Systems) was added to the plate to a final concentration of 5 ng/mL and a final well volume of 50 μL. The cells, compound, and IL-17A/A or IL17A/F were then incubated for 20 hours before media was removed for SEAP analysis. The resulting inhibition curve was then analyzed using Dotmatics' integrated 4-parameter fit screening protocol to generate IC50 values.

Row | IC50 | Compound
1 | < 100 nM | CCn1nccc1C(=O)N[C@H](c1cn2nc(C[C@H]3C[C@@H](C(F)(F)F)CNC3=O)c(C3CCOC3)cc2n1)[C@H]1CCCC(F)(F)C1 (stereo partly shown) [Compound 67]
2 | < 100 nM | CCn1nccc1C(=O)N[C@H](c1cn2nc(C[C@H]3C[C@@H](C(F)(F)F)CNC3=O)c(CN(CC(F)(F)F)C3CC3)cc2n1)C1CCC(F)(F)CC1 [Compound 117, N—((S)-(7-((cyclopropyl(2,2,2-trifluoroethyl)amino)methyl)-6-(((3R,5R)-2-oxo-5-(trifluoromethyl)piperidin-3-yl)methyl)imidazo[1,2-b]pyridazin-2-yl)(4,4-difluorocyclohexyl)methyl)-1-ethyl-/H-pyrazole-5-carboxamide]
3 | 100 to 1000 nM | CCn1nccc1C(=O)N[C@H](c1cn2nc(C[C@H]3C[C@@H](C(F)(F)F)CNC3=O)c(C3=CCOC3)cc2n1)C1CCC(F)(F)CC1 [Compound 58]
4 | < 100 nM | CCn1nccc1C(=O)N[C@H](c1cn2nc(C[C@H]3C[C@@H](C(F)(F)F)CNC3=O)c(C3CCOCC3)cc2n1)C1CCC(C)CC1 (stereo partly shown) [Compound 86]
5 | < 100 nM | CC(C)n1nccc1C(=O)N[C@H](c1cn2nc(C[C@H]3C[C@@H](C(F)(F)F)CNC3=O)c(N3CCOCC3)cc2n1)[C@@H]1CCCC(F)(F)C1 [Compound 28]
6 | 100 to 1000 nM | CCn1nccc1C(=O)N[C@H](c1cn2nc(C[C@@H]3C[C@@H](C(F)(F)F)CNC3=O)c(-c3cccnc3)cc2n1)C1CCC(F)(F)CC1 [Compound 8]
7 | < 100 nM | CCn1nccc1C(=O)N[C@H](c1cn2nc(C[C@H]3C[C@@H](C(F)(F)F)CNC3=O)c(N3CCOC4(CC4)C3)cc2n1)C1CCC(F)(F)CC1 [Compound 81]
8 | < 100 nM | CCn1nccc1C(=O)N[C@H](c1cn2nc(C[C@H]3C[C@@H](C(F)(F)F)CNC3=O)c(CNCC(F)(F)F)cc2n1)C1CCC(F)(F)CC1 [Compound 115, N—((S)-(4,4-difluorocyclohexyl)(6-(((3R,5R)-2-oxo-5-(trifluoromethyl)piperidin-3-yl)methyl)-7-(((2,2,2-trifluoroethyl)amino)methyl)imidazo[1,2-b]pyridazin-2-yl)methyl)-1-ethyl-1H-pyrazole-5-carboxamide]
9 | 100 to 1000 nM | CCn1nccc1C(=O)N[C@H](c1cn2nc(C[C@H]3C[C@@H](C(F)(F)F)CNC3=O)c(N3CC4(COC4)C3)cc2n1)C1CCC(F)(F)CC1 [Compound 43]
10 | < 100 nM | CCn1nccc1C(=O)N[C@H](c1cn2nc(C[C@H]3C[C@@H](C(F)(F)F)CNC3=O)c(N3CCC(F)(F)CC3)cc2n1)C1CCC(F)(F)CC1 [Compound 19]
11 | < 100 nM | CCn1nccc1C(=O)N[C@H](c1cn2nc(C[C@H]3C[C@@H](C(F)(F)F)CNC3=O)c(N3CC(OC)C3)cc2n1)C1CCC(F)(F)CC1 [Compound 79]
12 | < 100 nM | CCn1nccc1C(=O)N[C@H](c1cn2nc(C[C@H]3C[C@@H](C(F)(F)F)CNC3=O)c(CN3CCCCC3)cc2n1)C1CCC(F)(F)CC1 [Compound 107, N—((S)-(4,4-difluorocyclohexyl)(6-(((3R,5R)-2-oxo-5-(trifluoromethyl)piperidin-3-yl)methyl)-7-(piperidin-1-ylmethyl)imidazo[1,2-b]pyridazin-2-yl)methyl)-1-ethyl-1H-pyrazole-5-carboxamide]
13 | < 100 nM | CCn1nccc1C(=O)N[C@H](c1cn2nc(C[C@H]3C[C@@H](C(F)(F)F)CNC3=O)c(CN(C)C3CC3)cc2n1)C1CCC(F)(F)CC1 [Compound 113, N—((S)-(7-((cyclopropyl(methyl)amino)methyl)-6-(((3R,5R)-2-oxo-5-(trifluoromethyl)piperidin-3-yl)methyl)imidazo[1,2-b]pyridazin-2-yl)(4,4-difluorocyclohexyl)methyl)-1-ethyl-1H-pyrazole-5-carboxamide]
14 | < 100 nM | O=C(N[C@H](c1cn2nc(C[C@H]3C[C@H](C(F)(F)F)CNC3=O)c(N3CCOCC3)cc2n1)C1CCC(F)(F)CC1)c1nonc1C1CC1 [Compound 38]
15 | < 100 nM | CCn1nccc1C(=O)N[C@H](c1cn2nc(C[C@H]3C[C@@H](C(F)(F)F)CNC3=O)c(C3CCCOC3)cc2n1)[C@@H]1CCCC(F)(F)C1 (stereo partly shown) [Compound 64]
16 | 100 to 1000 nM | O=C(N[C@H](c1cn2nc(C[C@H]3C[C@@H](C(F)(F)F)CNC3=O)c(N3CC4(COC4)C3)cc2n1)C1CCC(F)(F)CC1)c1nonc1C1CC1 [Compound 42]
17 | < 100 nM | CCn1nccc1C(=O)N[C@H](c1cn2nc(C[C@H]3C[C@@H](C(F)(F)F)CNC3=O)c(C3CCCC3)cc2n1)C1CCC(F)(F)CC1 [Compound 46]
18 | < 100 nM | O=C(N[C@H](c1cn2nc(C[C@H]3C[C@@H](C(F)(F)F)CNC3=O)c(C3CCOCC3)cc2n1)C1CCC(F)(F)CC1)c1nonc1C1CC1 [Compound 54]
19 | < 100 nM | CCn1nccc1C(=O)N[C@H](c1cn2nc(C[C@H]3C[C@@H](C(F)(F)F)CNC3=O)c(C3CCOCC3)cc2n1)C1CCC(F)(F)CC1 [Compound 21, N—((S)-(4,4-difluorocyclohexyl)(6-(((3R,5R)-2-oxo-5-(trifluoromethyl)piperidin-3-yl)methyl)-7-(tetrahydro-2H-pyran-4-yl)imidazo[1,2-b]pyridazin-2-yl)methyl)-1-ethyl-1H-pyrazole-5-carboxamide]
20 | < 100 nM | CCn1nccc1C(=O)N[C@H](c1cn2nc(C[C@H]3C[C@@H](C(F)(F)F)CNC3=O)c(CNC)cc2n1)C1CCC(F)(F)CC1 [Compound 112, N—((S)-(4,4-difluorocyclohexyl)(7-((methylamino)methyl)-6-(((3R,5R)-2-oxo-5-(trifluoromethyl)piperidin-3-yl)methyl)imidazo[1,2-b]pyridazin-2-yl)methyl)-1-ethyl-1H-pyrazole-5-carboxamide]
21 | < 100 nM | CC(C)n1ncnc1C(=O)N[C@H](c1cn2nc(C[C@H]3C[C@@H](C(F)(F)F)CNC3=O)c(C3CCOCC3)cc2n1)C1CCC(F)(F)CC1 [Compound 90]
22 | < 100 nM | CCn1nccc1C(=O)N[C@H](c1cn2nc(C[C@H]3C[C@@H](C(F)(F)F)CNC3=O)c(N3CCN(CCOC)CC3)cc2n1)C1CCC(F)(F)CC1 [Compound 99, N—((S)-(4,4-difluorocyclohexyl)(7-(4-(2-methoxyethyl)piperazin-1-yl)-6-(((3R,5R)-2-oxo-5-(trifluoromethyl)piperidin-3-yl)methyl)imidazo[1,2-b]pyridazin-2-yl)methyl)-1-ethyl-1H-pyrazole-5-carboxamide]
23 | < 100 nM | CCn1nccc1C(=O)N[C@H](c1cn2nc(C[C@H]3C[C@@H](C(F)(F)F)CNC3=O)c(CN3CCC(F)(F)C3)cc2n1)C1CCC(F)(F)CC1 [Compound 105, N—((S)-(4,4-difluorocyclohexyl)(7-((3,3-difluoropyrrolidin-1-yl)methyl)-6-(((3R,5R)-2-oxo-5-(trifluoromethyl)piperidin-3-yl)methyl)imidazo[1,2-b]pyridazin-2-yl)methyl)-1-ethyl-1H-pyrazole-5-carboxamide]
24 | < 100 nM | O=C(N[C@H](c1cn2nc(C[C@H]3C[C@@H](C(F)(F)F)CNC3=O)c(C3CCOC3)cc2n1)C1CCC(F)(F)CC1)c1nonc1C1CC1 (single isomer, unassigned) [Compound 45]
25 | 100 to 1000 nM | CCn1nccc1C(=O)N[C@H](c1cn2nc(C[C@H]3C[C@@H](C(F)(F)F)CNC3=O)c(C3CCCOC3)cc2n1)C1CCC(F)(F)CC1 (stereo partly shown) [Compound 7]
26 | < 100 nM | CCn1nccc1C(=O)N[C@H](c1cn2nc(C[C@H]3C[C@@H](C(F)(F)F)CNC3=O)c([C@@H](C)N(C)CC(F)(F)F)cc2n1)C1CCC(F)(F)CC1 [Compound 110, N-((1S)-(4,4-difluorocyclohexyl)(7-(1-(methyl(2,2,2-trifluoroethyl)amino)ethyl)-6-(((3R,5R)-2-oxo-5-(trifluoromethyl)piperidin-3-yl)methyl)imidazo[1,2-b]pyridazin-2-yl)methyl)-1-ethyl-1H-pyrazole-5-carboxamide]

Same assay, conditions: IL-17A/A inhibition, HEK-Blue IL-17A reporter cell line, IL17A/A 5 ng/mL, 20 hours, SEAP read at A630; read-out: AA IC50

Row | IC50 | Compound
27 | > 1000 nM | CCn1nccc1C(=O)N[C@H](c1cn2nc(C[C@@H]3C[C@@H](C(F)(F)F)CNC3=O)c(N3CCOCC3C)cc2n1)C1CCC(F)(F)CC1 (stereo partly shown) [Compound 96]
28 | < 100 nM | O=C(N[C@H](c1cn2nc(C[C@H]3C[C@@H](C(F)(F)F)CNC3=O)c(C3CCOC3)cc2n1)[C@@H]1CCCC(F)(F)C1)c1nonc1C1CC1 (stereo partly shown) [Compound 74]
29 | < 100 nM | CCn1nccc1C(=O)N[C@H](c1cn2nc(C[C@H]3C[C@@H](C(F)(F)F)CNC3=O)c(N3CCC(OC)C3)cc2n1)C1CCC(F)(F)CC1 (stereo partly shown) [Compound 78]
30 | 100 to 1000 nM | CCn1nccc1C(=O)N[C@H](c1cn2nc(C[C@H]3C[C@@H](C(F)(F)F)CNC3=O)c(C3CCCOC3)cc2n1)C1CCC(F)(F)CC1 (stereo partly shown) [Compound 2]
31 | < 100 nM | CCn1nccc1C(=O)N[C@H](c1cn2nc(C[C@H]3C[C@@H](C(F)(F)F)CNC3=O)c(C3CCOC(C)(C)C3)cc2n1)C1CCC(F)(F)CC1 (stereo partly shown) [Compound 88]
32 | < 100 nM | O=C(N[C@H](c1cn2nc(C[C@H]3C[C@@H](C(F)(F)F)CNC3=O)c(C3CCOC3)cc2n1)[C@H]1CCCC(F)(F)C1)c1nonc1C1CC1 (stereo partly shown) [Compound 73]
33 | < 100 nM | CCn1nccc1C(=O)N[C@H](c1cn2nc(C[C@H]3C[C@@H](C(F)(F)F)CNC3=O)c(C3CCCOC3)cc2n1)[C@@H]1CCCC(F)(F)C1 (stereo partly shown) [Compound 66]
34 | < 100 nM | CCn1nccc1C(=O)N[C@H](c1cn2nc(C[C@H]3C[C@@H](C(F)(F)F)CNC3=O)c(C3COCCO3)cc2n1)C1CCC(F)(F)CC1 (stereo partly shown) [Compound 95]
